Values of other authors in patent US6322816A, “Fast-acting analgesic” (priority 1997, dated 2001).
Where a name gives a salt, the structure may show the parent alone.

What was measured:
[1] = in words, background
[2] = versus free acid; in words, background
[3] = in words, DE-C 36 39 038

## CC(C)Cc1ccc(C(C)C(=O)O)cc1 (racemic) [ibuprofen, 2-(4-isobutylphenyl)propionic acid]
[1]
  solubility: low solubility

## CC(C)Cc1ccc(C(C)C(=O)O)cc1 (racemic) [lysine salt]
[2]
  maximum blood level Cmax compared with the free acid: distinctly faster and higher maximum blood level Cmax

## CC(C)Cc1ccc(C(C)C(=O)O)cc1 (racemic) [sodium ibuprofenate]
[1]
  hygroscopicity: hygroscopic

## CC(C)Cc1ccc([C@H](C)C(=O)O)cc1 [S(+) isomer, S(+)-ibuprofen]
[3]
  onset of action: faster onset of action
